Consider 16 molecules from patent US20150258101A1 (Proximagen Limited, priority 2014, published 2015).

The target of this experiment is T1, purified recombinantly expressed human SSAO (Homo sapiens, UniProt Q16853).
T1 construct: made in house
T1 sequence (Q16853 1-763): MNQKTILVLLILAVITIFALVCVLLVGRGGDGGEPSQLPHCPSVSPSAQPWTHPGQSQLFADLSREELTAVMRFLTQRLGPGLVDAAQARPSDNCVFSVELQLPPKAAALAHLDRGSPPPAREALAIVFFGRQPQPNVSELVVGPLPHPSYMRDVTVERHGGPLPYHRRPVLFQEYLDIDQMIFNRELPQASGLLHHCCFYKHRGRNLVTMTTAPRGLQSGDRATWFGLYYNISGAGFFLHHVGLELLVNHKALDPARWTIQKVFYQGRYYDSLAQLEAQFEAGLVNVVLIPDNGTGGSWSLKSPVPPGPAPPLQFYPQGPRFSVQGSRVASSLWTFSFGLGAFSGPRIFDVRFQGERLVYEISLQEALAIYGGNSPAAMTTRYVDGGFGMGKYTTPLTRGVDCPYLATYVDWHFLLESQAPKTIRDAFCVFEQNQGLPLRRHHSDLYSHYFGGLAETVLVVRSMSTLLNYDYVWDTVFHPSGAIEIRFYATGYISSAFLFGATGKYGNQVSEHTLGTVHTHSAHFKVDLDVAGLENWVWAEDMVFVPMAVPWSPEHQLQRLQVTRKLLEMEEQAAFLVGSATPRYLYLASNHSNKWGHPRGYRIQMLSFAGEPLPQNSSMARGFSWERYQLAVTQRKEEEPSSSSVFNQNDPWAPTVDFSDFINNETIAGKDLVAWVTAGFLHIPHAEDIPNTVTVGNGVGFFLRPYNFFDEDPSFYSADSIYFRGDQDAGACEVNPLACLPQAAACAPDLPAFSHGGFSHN
The experiment in a line: SSAO enzyme inhibition assay (benzylamine substrate; hydrogen peroxide/HRP-coupled or 14C aldehyde detection). Format: biochemical. As to conditions: SSAO inhibitory activity, RT. A digest of the protocol:
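IC50 values came from a four-parameter logistic fit of % signal decrease versus DMSO control, with no-enzyme background subtracted. Two read-outs were used with human recombinant SSAO after ~15 min compound pre-incubation at RT. In the H2O2/HRP-Amplex read-out, enzyme was 1 ug/ml and benzylamine 100 uM (pH 7.4 phosphate), with resorufin fluorescence followed 1-2 h. In the 14C-benzaldehyde read-out (PBS), enzyme was 10 ug/ml and benzylamine 40 uM, run 1 h then acid-stopped.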
As for `CN1CCN(C(=O)c2ccc(-c3cc4ccncc4n3-c3ccc(Cl)cc3)cc2)CC1` [Example 125, 1-({4-[1-(4-Chlorophenyl)-1H-pyrrolo[2,3-c]pyridin-2-yl]phenyl}carbonyl)-4-methylpiperazine], the half-maximal inhibitory concentration (IC50) (usually the concentration at which inhibition is half-maximal) lay in the range of 200 to 1200 nM.
To `Cc1nc(C)c(-c2cc3ccncc3n2-c2ccc(Cl)cc2)[nH]1` [Example 126, 5-[1-(4-Chlorophenyl)-1H-pyrrolo[2,3-c]pyridin-2-yl]-2,4-dimethyl-1H-imidazole] belongs less than 50 nM; to `Cc1cc(N2CCOCC2)ncc1-c1cc2ccncc2n1-c1ccc(Cl)cc1` [Example 129, 4-{5-[1-(4-Chlorophenyl)-1H-pyrrolo[2,3-c]pyridin-2-yl]-4-methylpyridin-2-yl}morpholine; bis(trifluoroacetic acid)], less than 50 nM.
The same measure for `Cc1ccc(-n2c(-c3cnc(N4CCOCC4)nc3)cc3ccncc32)cc1` [Example 130, 4-{5-[1-(4-Methylphenyl)-1H-pyrrolo[2,3-c]pyridin-2-yl]pyrimidin-2-yl}morpholine]: 50 to 200 nM; for `Brc1ccc(-n2c(-c3cnc(N4CCOCC4)nc3)cc3ccncc32)cc1` [Example 133, 4-{5-[1-(4-Bromophenyl)-1H-pyrrolo[2,3-c]pyridin-2-yl]pyrimidin-2-yl}morpholine]: less than 50 nM.
`Cn1nccc1-c1cc2ccncc2n1-c1ccc(Cl)cc1` [Example 134, 5-[1-(4-Chlorophenyl)-1H-pyrrolo[2,3-c]pyridin-2-yl]-1-methyl-1H-pyrazole]: the concentration for half-maximal inhibition (IC50) was less than 50 nM.
To `Cn1cc(-c2cc3ccncc3n2-c2ccc(Cl)cc2)cn1` [Example 135, 4-[1-(4-Chlorophenyl)-1H-pyrrolo[2,3-c]pyridin-2-yl]-1-methyl-1H-pyrazole] belongs less than 50 nM.
Turning to `Cn1cncc1-c1cc2ccncc2n1-c1ccc(Cl)cc1` [Example 136, 5-[1-(4-Chlorophenyl)-1H-pyrrolo[2,3-c]pyridin-2-yl]-1-methyl-1H-imidazole], the concentration for half-maximal inhibition (IC50) was less than 50 nM.
Consider `CN(C)c1ncc(-c2cc3ccncc3n2-c2ccc(Cl)cc2)cn1` [Example 137, 5-[1-(4-Chlorophenyl)-1H-pyrrolo[2,3-c]pyridin-2-yl]-N,N-dimethylpyrimidin-2-amine; bis(trifluoroacetic acid)], for which the IC50 is less than 50 nM.
The same measure for `Cc1cc(N)ncc1-c1cc2ccncc2n1-c1ccc(Cl)cc1` [Example 141, 5-[1-(4-Chlorophenyl)-1H-pyrrolo[2,3-c]pyridin-2-yl]-4-methylpyridin-2-amine; bis(trifluoroacetic acid)]: 50 to 200 nM; for `Cn1ccc(-c2cc3ccncc3n2-c2ccc(Cl)cc2)cc1=O` [Example 143, 4-[1-(4-Chlorophenyl)-1H-pyrrolo[2,3-c]pyridin-2-yl]-1-methyl-1,2-dihydropyridin-2-one]: less than 50 nM; for `CCn1ccc(-c2cc3ccncc3n2-c2ccc(Cl)cc2)cc1=O` [Example 144, 4-[1-(4-Chlorophenyl)-1H-pyrrolo[2,3-c]pyridin-2-yl]-1-ethyl-1,2-dihydropyridin-2-one]: 50 to 200 nM.
For the molecule `Cn1c(-c2cc3ccncc3n2-c2ccc(Cl)cc2)cccc1=O` [Example 145, 6-[1-(4-Chlorophenyl)-1H-pyrrolo[2,3-c]pyridin-2-yl]-1-methyl-1,2-dihydropyridin-2-one], the IC50 was less than 50 nM.
As to `O=c1cc(-c2cc3ccncc3n2-c2ccc(Cl)cc2)cn[nH]1` [Example 146, 5-[1-(4-Chlorophenyl)-1H-pyrrolo[2,3-c]pyridin-2-yl]-2,3-dihydropyridazin-3-one], the IC50 fell in the range of 50 to 200 nM.
The same measure for `Fc1cncc(-c2cc3ccncc3n2-c2ccc(Cl)cc2)c1` [Example 148, 3-[1-(4-Chlorophenyl)-1H-pyrrolo[2,3-c]pyridin-2-yl]-5-fluoropyridine]: less than 50 nM.
Consider `Clc1ccc(-n2c(-c3cnc(NCC4CC4)nc3)cc3ccncc32)cc1` [Example 149, 5-[1-(4-Chlorophenyl)-1H-pyrrolo[2,3-c]pyridin-2-yl]-N-(cyclopropylmethyl)pyrimidin-2-amine], for which the concentration for half-maximal inhibition (IC50) was less than 50 nM.
